Results on 34 compounds are retold here after ChEMBL document CHEMBL6092165, “Discovery of sp3-rich diazatricycloundecanes as lysosomotropic autophagy inhibitors” (Eur J Med Chem, 2024).

Calls of active or inactive are those of the source. No cut-off for these calls is given here. Some results are limits rather than exact numbers.

Test [1] concerns HeLa. As to the kind of experiment: Antiproliferative activity against human HeLa cells assessed as inhibition of cell growth incubated for 72 hrs by MTT assay. Type of test: functional, cell-based.
A short description of test [2]: Induction of autophagic flux in human HeLa cells overexpressing EGFP-LC3 assessed as fold increase in GFP-tagged LC3-II protein expression at 10 uM incubated for 24 hrs by Western blotting analysis (reference value: 1). The format is functional.
The subject of test [3] is Lysosomal membrane. The test can be described thus: Induction of lysosomal membrane permeabilization in human HeLa cells assessed as increase fluorescence intensity at 10 uM incubated for 24 hrs in presence of bafilomycin A1 by LysoTracker Red DND-99 dye based confocal laser microscopic analysis. Type of test: subcellular.
The test system of test [4] is HT-1080. As to the kind of experiment: Antiproliferative activity against human HT-1080 cells assessed as inhibition of cell growth incubated for 72 hrs by MTT assay. Type of test: functional, cell-based.
For test [5], the system named is HT-1080. As to the kind of experiment: Induction of autophagic flux in human HT-1080 cells assessed as increase in LC3-II protein expression at 10 uM incubated for 24 hrs by Western blotting analysis. The format is functional, cell-based.
The subject of test [6] is Lysosomal membrane. The test can be described thus: Disruption of lysosomal membrane in human HT-1080 cells assessed as downregulation of cathepsin B expression at 20 uM by Western blotting analysis. Type of test: subcellular.
The nature of test [7]: Induction of autophagic flux in human HeLa cells overexpressing EGFP-LC3 assessed as fold increase in GFP-tagged LC3-II protein expression at 1 uM incubated for 24 hrs by Western blotting analysis (reference value: 1). The format is functional.
Test [8] deals with Lysosomal membrane. As to the kind of experiment: Disruption of lysosomal membrane in human HT-1080 cells assessed as downregulation of cathepsin B expression incubated for 24 hrs by Western blotting analysis. The format is subcellular.
For test [9], the system named is HeLa. As to the kind of experiment: Induction of autophagy in human HeLa cells overexpressing EGFP-LC3 assessed as increase in LC3-II puncta formation at 10 uM incubated for 24 hrs in presence of rapamycin by Hoechst staining based immunofluorescence analysis. The format is functional, cell-based.
The test system of test [10] is HeLa. The test can be described thus: Induction of autophagy in human HeLa cells overexpressing EGFP-LC3 assessed as increase in LC3-II puncta formation at 10 uM incubated for 24 hrs in presence of chloroquine by Hoechst staining based immunofluorescence analysis. Type of test: functional, cell-based.
Test [11] in a line: Induction of autophagic flux in human HeLa cells overexpressing EGFP-LC3 assessed as fold increase in GFP-tagged LC3-II protein expression at 3 uM incubated for 24 hrs by Western blotting analysis (reference value: 1). Type of test: functional.
In test [12] the test system is Lysosomal membrane. The test can be described thus: Induction of lysosomal membrane permeabilization in human HeLa cells assessed as increase fluorescence intensity at 10 uM incubated for 24 hrs in presence of chloroquine by LysoTracker Red DND-99 dye based confocal laser microscopic analysis. The format is subcellular.
Test [13] concerns HeLa. The test can be described thus: Induction of autophagic flux in human HeLa cells overexpressing EGFP-LC3 assessed as increase in GFP-tagged LC3-II protein expression at 10 uM incubated for 24 hrs by Western blotting analysis. The format is functional, cell-based.
The test system of test [14] is Lysosomal membrane. The test can be described thus: Disruption of lysosomal membrane in human HT-1080 cells assessed as downregulation of cathepsin B expression at 5 uM incubated for 12 hrs by Western blotting analysis. Type of test: subcellular.
In test [15] the test system is Lysosomal membrane. As to the kind of experiment: Disruption of lysosomal membrane in human HT-1080 cells assessed as downregulation of cathepsin B expression at 20 uM incubated for 12 hrs by Western blotting analysis. Type of test: subcellular.

As for `C#CCCCC(=O)OC1CC2CN(Cc3ccccc3)CC3C1[C@@H](CC(=O)NCc1ccccc1)CN23` (some centres not stated), in test [1], the IC50 worked out at 15.7 µM. Besides, in test [2], the “fold change (FC)” value is 4.3.

Turning to `CCCCCCNC(=O)C[C@H]1CN2C3CC(OC(=O)C(C)C)C1C2CN(Cc1ccccc1)C3` (some centres not stated), in test [3], the outcome was inactive. The result in test [4] and in [5] was Active. Moreover, in test [1], the half-inhibitory concentration (IC50) turned out to be 10.1 µM. In addition, the Activity entry in test [6] was “Time-dependent-effect”; in [8], “Dose-dependent-effect”; in [9] it was “Active; Compared To Compound Alone Or Rapamycin Alone Treatment”; in test [10], “Not active; Compared To Compound Alone Or Chloroquine Alone Treatment; Mechanism Of Action Similar To Chloroquine”; in test [12], “Active; Compound Observed To Enlarge Lysosome And Increase Lysosomal Ph Similar To Chloroquine”. Moreover, the “fold change (FC)” value in test [7] was determined as 1.3; in [2], 2.4; in [11] it was 2.6.

As for `CC(C)CN1CC2CC(OC(=O)Cc3ccccc3)C3C(C1)N2C[C@@H]3CC(=O)NCc1ccccc1` (some centres not stated), in test [1], the 50% inhibitory concentration (IC50) turned out to be 94.2 µM. Besides, the “fold change (FC)” value in test [2] is reported as 1.8.

With `CC(C)CC(=O)OC1CC2CN(CC(C)C)CC3C1[C@@H](CC(=O)NCc1ccccc1)CN23` (some centres not stated), in test [1], the IC50 is 34.2 µM. For the same compound, the “fold change (FC)” value in [2] was 2.5.

For the compound `CCCCCCNC(=O)/C=C1/CN2C3CNCC2C1C(OC(=O)C(C)C)C3` (configuration not stated), the IC50 in test [1] is over 100 µM. For the same compound, in test [2], the “fold change (FC)” value was 1.3.

On to `CCCCCCNC(=O)/C=C1/CN2C3CC(OC(=O)C(C)C)C1C2CN(C(=O)c1ccccc1)C3` (configuration not stated), for which, in test [1], the IC50 was over 100 µM. Further, in test [2], the “fold change (FC)” value stood at 1.3.

Consider `CCOC(=O)C[C@H]1CN2C3CC(=O)C1C2CN(Cc1ccccc1)C3` (some centres not stated), for which the 50% inhibitory concentration (IC50) in [1] is over 100 µM. Also, the outcome in test [13] was inactive.

With `CC(C)CCC(=O)OC1CC2CN(Cc3ccccc3)CC3C1[C@@H](CC(=O)NCc1ccccc1)CN23` (some centres not stated), the 50% inhibitory concentration (IC50) in [1] was determined as 6.2 µM. Besides, the “fold change (FC)” value in test [2] worked out at 3.7.

Consider `CC(C)C(=O)OC1CC2CN(CC3CCCCC3)CC3C1[C@@H](CC(=O)NCC1CCCCC1)CN23` (some centres not stated), for which the IC50 in [1] was 6 µM. Moreover, the results for the “fold change (FC)” value in test [7], in test [2] and in [11] were 1.4, 2.9 and 3.7, respectively.

In the case of `CC(C)CNC(=O)C[C@H]1CN2C3CC(OC(=O)Cc4ccccc4)C1C2CN(Cc1ccccc1)C3` (some centres not stated), the concentration for half-maximal inhibition (IC50) in [1] was 47.9 µM. The “fold change (FC)” value in [2] is reported as 1.6.

As for `CC(C)C(=O)OC1CC2CN(Cc3ccccc3)CC3C1[C@@H](CC(=O)NCC1CCCCC1)CN23` (some centres not stated), the IC50 in [1] amounted to 15.5 µM. For the same compound, the results for the “fold change (FC)” value in test [7], in test [2] and in [11] were 2, 2.4 and 2.1, respectively.

Turning to `O=C(C[C@H]1CN2C3CC(OC(=O)Cc4ccccc4)C1C2CN(Cc1ccccc1)C3)NCc1ccccc1` (some centres not stated), in test [1], the IC50 was 14.8 µM. In addition, the “fold change (FC)” value in [2] came to 2.

Regarding `CC(C)NC(=O)C[C@H]1CN2C3CC(OC(=O)C(C)C)C1C2CN(Cc1ccccc1)C3` (some centres not stated), the IC50 in [1] was over 100 µM. In test [2], the “fold change (FC)” value is reported as 1.8.

On to `CO/C1=C\C(C)=C\[C@@H](C)[C@@H](O)[C@@H](C)C/C(C)=C/C=C/[C@H](OC)[C@@H]([C@@H](C)[C@@H](O)[C@H](C)[C@@]2(O)C[C@@H](O)[C@H](C)[C@@H](C(C)C)O2)OC1=O`, for which, in test [14], the result was Active.

`CNC(=O)C[C@H]1CN2C3CC(OC(=O)C(C)C)C1C2CN(Cc1ccccc1)C3` (some centres not stated): in test [1], the half-maximal inhibitory concentration (IC50) was over 100 µM. For the same compound, the “fold change (FC)” value in test [2] came out at 1.9.

As to `O=C(C[C@H]1CN2C3CC(OC(=O)C4CCCCC4)C1C2CN(Cc1ccccc1)C3)NCc1ccccc1` (some centres not stated), in test [1], the IC50 amounted to 5.2 µM. In test [2], the “fold change (FC)” value came out at 3.7.

As to `CCCCCCNC(=O)/C=C1/CN2C3CC(OC(=O)C(C)C)C1C2CN(C(=O)OCc1ccccc1)C3` (configuration not stated), in [1], the half-inhibitory concentration (IC50) was found to be 23.1 µM. Also, in test [2], the “fold change (FC)” value amounted to 1.3.

Take `O=C(C[C@H]1CN2C3CC(OC(=O)C4CCCCCC4)C1C2CN(Cc1ccccc1)C3)NCc1ccccc1` (some centres not stated): the concentration for half-maximal inhibition (IC50) in test [1] stood at 5.1 µM. Further, the “fold change (FC)” value in test [2] worked out at 2.2.

As for `CC(=O)OC1CC2CN(Cc3ccccc3)CC3C1[C@@H](CC(=O)NCc1ccccc1)CN23` (some centres not stated), the IC50 in test [1] was 78.4 µM. Moreover, in [2], the “fold change (FC)” value is 3.5.

Consider `O=C(C[C@H]1CN2C3CC(O)C1C2CN(Cc1ccccc1)C3)NCc1ccccc1` (some centres not stated), for which the IC50 in test [1] was over 100 µM. In test [13], the result was inactive.

Consider `CCCCCCCCCCCCCCCC(=O)OC1CC2CN(Cc3ccccc3)CC3C1[C@@H](CC(=O)NCc1ccccc1)CN23` (some centres not stated), for which the IC50 in [1] came out at 5.5 µM. Besides, in test [2], the “fold change (FC)” value was found to be 1.1.

With `CC(C)CC(=O)OC1CC2CN(Cc3ccccc3)CC3C1[C@@H](CC(=O)NCc1ccccc1)CN23` (some centres not stated), in [1], the half-maximal inhibitory concentration (IC50) turned out to be 10 µM. The “fold change (FC)” value in [2] was determined as 3.

`CCCCC(=O)OC1CC2CN(Cc3ccccc3)CC3C1[C@@H](CC(=O)NCc1ccccc1)CN23` (some centres not stated): the 50% inhibitory concentration (IC50) in [1] was 6.7 µM. In addition, the “fold change (FC)” value in [2] came to 5.4.

Turning to `O=C(C[C@H]1CN2C3CC(OC(=O)C4CC4)C1C2CN(Cc1ccccc1)C3)NCc1ccccc1` (some centres not stated), in [1], the IC50 amounted to 18 µM. For the same compound, the “fold change (FC)” value in [2] is reported as 5.7.

`CC(C)C(=O)OC1CC2CN(Cc3ccccc3)CC3C1[C@@H](CC(=O)NCc1ccccc1)CN23` (some centres not stated): the IC50 in test [1] was 19.3 µM. Besides, in [2], the “fold change (FC)” value is 1.9.

Regarding `CCCCCCNC(=O)/C=C1/CN2C3CC(OC(=O)C(C)C)C1C2CN(Cc1ccccc1)C3` (configuration not stated), the concentration for half-maximal inhibition (IC50) in test [1] was found to be 12.5 µM. Also, the “fold change (FC)” value in [2] is recorded as 3.

As for `CCOC(=O)C[C@H]1CN2C3CNCC2C1C(=O)C3` (some centres not stated), in [1], the IC50 is over 100 µM. Also, in [13], the result was inactive.

Consider `CC(C)CNC(=O)C[C@H]1CN2C3CC(OC(=O)Cc4ccccc4)C1C2CN(CC(C)C)C3` (some centres not stated), for which, in [1], the IC50 is over 100 µM. For the same compound, the “fold change (FC)” value in test [2] was determined as 1.3.

As to `O=C(C[C@H]1CN2C3CC(=O)C1C2CN(Cc1ccccc1)C3)NCc1ccccc1` (some centres not stated), in test [1], the 50% inhibitory concentration (IC50) was over 100 µM. Besides, in test [13], the outcome was inactive.

Regarding `CC(C)(C)C(=O)OC1CC2CN(Cc3ccccc3)CC3C1[C@@H](CC(=O)NCc1ccccc1)CN23` (some centres not stated), the IC50 in test [1] was found to be 5.6 µM. Moreover, the “fold change (FC)” value in [2] is 3.8.

Regarding `CCN(CC)CCCC(C)Nc1ccnc2cc(Cl)ccc12` (configuration not stated) [CHLOROQUINE], in test [1], the IC50 was 43.1 µM. In [2], the “fold change (FC)” value was 2. For the same compound, the outcome in [15] was Active.

For `CC(C)CNC(=O)C[C@H]1CN2C3CC(OC(=O)CC(C)C)C1C2CN(Cc1ccccc1)C3` (some centres not stated), the IC50 in test [1] was 15.7 µM. Moreover, in test [2], the “fold change (FC)” value stood at 1.7.

Turning to `CCCCCCNC(=O)/C=C1/CN2C3CC(OC(=O)C(C)C)C1C2CN(C)C3` (configuration not stated), the 50% inhibitory concentration (IC50) in [1] is over 100 µM. Besides, the “fold change (FC)” value in test [2] is 2.1.

Turning to `CC(C)CNC(=O)C[C@H]1CN2C3CC(OC(=O)CC(C)C)C1C2CN(CC(C)C)C3` (some centres not stated), in [1], the IC50 is over 100 µM. Besides, the “fold change (FC)” value in [2] is on record as 1.2.
